# Literature values, collected in patent publication US12427127B2 (priority 2018, dated 2025).
smiles,measurement,value
"O=NN(CCCl)C(=O)NCCCl [Carmustine, 1,3-bis (2-chloroethyl)-1-nitrosourea]",Solubility in alcohol and lipids,highly soluble
same,Solubility in water,poorly soluble
